Measurements reported in Sander's compilation of Henry's law constants (doi:10.1021/es970763v).

Assay: Henry solubility constant Hcp at 298.15 K (mol/(m3 Pa))
Settings: reference: Welke et al. (1998)

Row | SMILES | Henry solubility constant Hcp
1 | CC(Cl)CCl (stereo not drawn) [1,2-dichloropropane] | 0.0055
2 | Cc1ccccc1C [1,2-dimethylbenzene] | 0.0022
3 | C=C(C)C1CC=C(C)CC1 (stereo not drawn) [1-methyl-4-(1-methylethenyl)-cyclohexene] | 0.00024
4 | CCC[N+](=O)[O-] [1-nitropropane] | 0.16
5 | C=CC#N [2-propenenitrile] | 0.031
6 | C=CCCl [3-chloro-1-propene] | 0.0037
7 | CC(=O)CC(C)C [4-methyl-2-pentanone] | 0.047
8 | ClCC1CO1 (stereo not drawn) [(chloromethyl)-oxirane] | 0.29
9 | c1ccccc1 [benzene] | 0.0016
10 | CCCCOC(C)=O [butyl ethanoate] | 0.027
11 | Clc1ccccc1 [chlorobenzene] | 0.0027
12 | ClCCl [dichloromethane] | 3.7
13 | CC#N [ethanenitrile] | 0.34
14 | C=Cc1ccccc1 [ethenylbenzene] | 0.0025
15 | CCOC(C)=O [ethyl ethanoate] | 0.034
16 | Cc1ccccc1 [methylbenzene] | 0.0014
17 | CC(C)=O [propanone] | 0.096
18 | CCCOC(C)=O [propyl ethanoate] | 0.037
